Measurements taken from US20060128614A1, “Antimicrobial peptides with reduced hemolysis and methods of their use” (priority 2002, published 2006).
Values after ≈ are worked out from the molar mass of the structure shown. Where two headings read alike, the source gives them in different places. Non-standard residues stand in square brackets, D forms with d. Residues, ends and D or L forms follow the SMILES beside them. 2Nal = N[C@@H](Cc1ccc2ccccc2c1)C(=O)O

Legend:
[1] = tested on: E. coli; format: cell-based, Escherichia coli
Method: (§1) The in vitro antimicrobial activities of antimicrobial agents were tested using standard NCCLS bacterial and fungi inhibition assays or minimum inhibition concentration (MIC) tests. The MIC value is the lowest concentration of peptide at which the visible growth of test organisms was inhibited and reduced. Overnight cultures of the test organisms were diluted to produce an inoculum containing approximately […] in Meuller-Hinton broth (MHB). From the peptide stock solution, serial dilutions of the peptides into […] were prepared and all wells of a 96-well microtiter plate were subsequently inoculated with the diluted culture of the test organisms. After 18 hours of incubation at 37°, the results were assayed for turbidity as an indicator of cell growth. MIC values for the peptides are shown in Table 3 and Table 4 and FIGS. 1(A), 1(B), 1 (C) and 1 (D) show survival rates for Pac-625 and Pac-626.

[2] = tested on: S. aureus; format: cell-based, Staphylococcus aureus
Method: as §1

[3] = tested on: B. cereus; format: cell-based, Bacillus cereus
Method: as §1

[4] = tested on: Candida albicans; format: cell-based
Method: as §1

[5] = tested on: outer membrane of E. coli; experiment: NPN uptake assay, outer membrane permeabilization; format: cell-based; conditions: intact cells of E. coli
Method: The outer membrane permeabilization activity of the peptide variants was determined by the 1-N-phenylnaphthylamine (NPN) uptake assay, using intact cells of E. coli. […] Since NPN is hydrophobic, it provides a direct measurement of the degree of outer membrane permeability. E. coli take up little or no NPN in a general condition. In the presence of permeabilizer compounds (EDTA, polymyxin B, Neomycin, or antimicrobial peptides), NPN partitioned into the bacterial outer membrane results in an increase in fluorescence. Fluorescence will vary with the concentration of peptide.
One ml of overnight culture was used to inoculate 50 ml of media and incubated at 37° C. with shaking. The culture was permitted to grow to an OD600 of 0.4 to 0.6, cells were spun down at 3500 rpm for 10 minutes, washed, and re-suspended in buffer to an OD600 of 0.5. The OD600 was recorded, 1 ml of cells (OD600=0.5) was added to the cuvette and measured after 2-5 seconds. 20 μl NPN 0.5 mM, shaken to mix, was added and measured after 2-5 seconds. 10 ul antibiotic 100× desired final concentration was added, shaken to mix, and measured until the maximal value was reached within 1 to 5 minutes. The concentration of peptide leading to 50% of the maximum increase in NPN uptake was recorded as the P50.

[6] = tested on: human red blood cells (RBC); format: cell-based
Method: Pac-401, Pac-403, Pac-625 and Pac-626 were tested for hemolysis against human red blood cells (RBC). The RBCs with EDTA were rinsed 3 times with PBS (800 g, 10 min) and re-suspended in PBS. The RBCs were diluted into 10% with phosphate-buffered saline and placed […] into each eppendorf. The peptides dissolved in PBS were then added to 50 μl of 10% solution of RBCs and incubated for an hour at 37° C. (final RBC concentration, 5% v/v). The samples were centrifuged at 800 g for 10 min […]. Various concentrations of peptides were incubated with pretreated RBC and the percentage of hemolysis determined.

[7] = qualitative statement
[8] = tested on: B. subtilis; format: cell-based, Bacillus subtilis
Method: as §1

[9] = tested on: S. epidermidis; format: cell-based, Staphylococcus epidermidis
Method: as §1

[10] = tested on: Gram-positive and Gram-negative bacteria; experiment: Antimicrobial activity of Trp template peptides; format: cell-based; conditions: qualitative statement

CC[C@H](C)[C@H](NC(C)=O)C(=O)N[C@@H](Cc1ccc2ccccc2c1)C(=O)N[C@@H](CCCNC(=N)N)C(=O)N[C@H](C(=O)N[C@@H](Cc1ccc2ccccc2c1)C(=O)N[C@@H](CCCNC(=N)N)C(=O)N[C@@H](CCCNC(=N)N)C(=O)N[C@@H](Cc1ccc2ccccc2c1)C(=O)N[C@@H](CCCCN)C(N)=O)C(C)C [Pac-626 L, I (2-Nal) R V (2-Nal) R R (2-Nal) K] (Ac-I[2Nal]RV[2Nal]RR[2Nal]K-NH2)
MIC against E. coli [1]: 4 mg/L (≈ 2.74 µM)
MIC against E. coli ([1]; 18 h): 4 mg/L (≈ 2.74 µM)
MIC S. aureus [2]: 4 mg/L (≈ 2.74 µM)
MIC against S. aureus [2]: 4 mg/L (≈ 2.74 µM)
MIC against S. aureus ([2]; 18 h): 4 mg/L (≈ 2.74 µM)
MIC B. cereus [3]: 4 mg/L (≈ 2.74 µM)
MIC Candida albicans [4]: 32 mg/L (≈ 21.9 µM)
P50 (concentration of peptide leading to 50% of the maximum increase in NPN uptake) [5]: 2 µg/mL
% lysis @ 5 μg/ml [6]: 0.81%
% lysis @ 50 μg/ml [6]: 7.2%
% lysis @ 500 μg/ml [6]: 14%

CC[C@H](C)[C@H](NC(C)=O)C(=O)N[C@@H](Cc1c[nH]c2ccccc12)C(=O)N[C@@H](CCCNC(=N)N)C(=O)N[C@H](C(=O)N[C@@H](Cc1c[nH]c2ccccc12)C(=O)N[C@@H](CCCNC(=N)N)C(=O)N[C@@H](CCCNC(=N)N)C(=O)N[C@@H](Cc1c[nH]c2ccccc12)C(=O)N[C@@H](CCCCN)C(N)=O)C(C)C [Pac-525rev, Ac-IWRVWRRWK-NH2] (Ac-IWRVWRRWK-NH2)
hemolytic activity [7]: very similar to that of Pac-525

CC[C@H](C)[C@H](NC(=O)[C@H](Cc1ccc2ccccc2c1)NC(=O)[C@H](CCCNC(=N)N)NC(=O)[C@@H](NC(=O)[C@H](Cc1ccc2ccccc2c1)NC(=O)[C@H](CCCNC(=N)N)NC(=O)[C@H](CCCNC(=N)N)NC(=O)[C@H](Cc1ccc2ccccc2c1)NC(=O)[C@H](CCCCN)NC(C)=O)C(C)C)C(N)=O [Pac-625 L, K (2-Nal) R R (2-Nal) V R (2-Nal) I] (Ac-K[2Nal]RR[2Nal]VR[2Nal]I-NH2)
MIC against E. coli [1]: 2 mg/L (≈ 1.37 µM)
MIC against E. coli ([1]; 18 h): 2 mg/L (≈ 1.37 µM)
MIC against S. aureus [2]: 4 mg/L (≈ 2.74 µM)
MIC against S. aureus ([2]; 18 h): 4 mg/L (≈ 2.74 µM)
MIC B. subtilis [8]: 4 mg/L (≈ 2.74 µM)
MIC S. epidermidis [9]: 2 mg/L (≈ 1.37 µM)
MIC Candida albicans [4]: 16 mg/L (≈ 11 µM)
P50 (concentration of peptide leading to 50% of the maximum increase in NPN uptake) [5]: 2 µg/mL
% lysis @ 5 μg/ml [6]: 0.82%
% lysis @ 50 μg/ml [6]: 7.3%
% lysis @ 500 μg/ml [6]: 15%

CC[C@H](C)[C@H](NC(=O)[C@H](Cc1c[nH]c2ccccc12)NC(=O)[C@H](CCCNC(=N)N)NC(=O)[C@@H](NC(=O)[C@H](Cc1c[nH]c2ccccc12)NC(=O)[C@H](CCCNC(=N)N)NC(=O)[C@H](CCCNC(=N)N)NC(=O)[C@H](Cc1c[nH]c2ccccc12)NC(=O)[C@H](CCCCN)NC(C)=O)C(C)C)C(N)=O [Pac-525, Ac-KWRRWVRW1-NH2] (Ac-KWRRWVRWI-NH2)
antimicrobial activity [10]: improved activity against both Gram-positive and Gram-negative bacteria
hemolytic activity [7]: reduced hemolytic activity
